Laboratory results from US20260347399A1, “BRAIN PENETRATING PEPTIDES AND METHODS OF USE” (priority 2022, published 2026).
Ends that are not written are not given here.

Tests used:
mouse brain [1] = assay: In vivo phage display with CX4CYX library
Method: In vivo phage display with CX4CYX library was performed in three selection rounds. Phage library was injected intravenously to Balb/c mice and allowed to circulate for one hour. After circulation, the animals were anesthetized and perfused intracardially with acid and detergent buffers. Brain and control organs were collected and homogenized in 1% NP40-LB. Bound phages were rescued by amplification in E. coli and their genomic DNA was sequenced by Ion Torrent next generation DNA sequencing system.
A novel phage library CX4CYX was constructed based on the alanine-leucine screen to find new brain homing peptides). This knowledge directed us to construct a novel phage library CX4CYX (X—any amino acid), where Cys1, Cys6 and Tyr7 remained in their intact positions, and the four amino acid variable-domain laid between the cysteines, and one amino acid variability after Tyr7. Three rounds of phage bio-panning was performed to allow enrichment of peptides in the brain. Again acid and detergent buffers were used for perfusion to remove non-specifically bound phages from the brain after systemic administration of phage library (round 1) and recovered brain phage pools (round 2 and 3). HTS reads from round 1 to round 3 indicated decent enrichment of in-frame peptides in the brain (Table 6).

mouse brain [2] = assay: In vivo play-off screen with 10 published CNS homing peptide-phages; settings: phage pool i.v., 1 h; acid and detergent perfusion
Method: Play-off screen was carried out with 10 previously published BBB penetrating/CNS homing peptide-phages. […] Oligonucleotides were annealed and ligated into the phage genome using T7Select 415-1 cloning kit (Novagen) and the T7Select System Manual. Each peptide-phage was separately amplified in liquid bacterial culture, precipitated with PEG, recovered in PBS and titered. Phages were mixed in equimolar ratios and purified with CsCl-ultracentrifugation and dialysis. Titer of the play-off pool was determined and mice were intravenously injected with 1×10^10 pfu of phage pool. After one hour of circulation time, mice were perfused with acid buffer (500 mM NaCl, 0.1 M glycine, 1% BSA, pH2.5) and detergent buffer (1% NP40 in PBS), collected organs were homogenized and phage pools amplified for high-throughput sequencing.
Novel BBB penetrating and CNS homing peptide was identified in a step by step process including a phage play-off screens, alanine scanning mutagenesis and phage display with unique library. The first selection step included a phage play-off screen with ten previously published CNS homing peptides (Table 5). To ensure collecting BBB penetrating and CNS homing peptides, phage play-off pool was intravenously (iv) injected into the mice and perfusion was done with acid and detergent buffers to remove unbound phages and brake the endothelial layer of blood vessels. […]

activated microglia = assay: FAM-CVG colocalization with activated microglia in glioma; assay type: in vivo, mouse; settings: FAM-labelled, i.v., 1 h; WT GBM, glioma edge and core
Method: WT GBM glioma-bearing mice were injected iv with FAM-labelled CVG peptide for 1 hour circulation. Mice were perfused and tissues of interest were snap-frozen in the vapor of liquid nitrogen. Immunofluorescent staining was carried out with the following antibodies: FAM, CD68, CD11b and CD206.

mouse brain [3] = assay: In vivo play-off of alanine-scan peptide-phages; settings: 5×10^9 pfu phage mix i.v., 1 h, HTS
Method: To determine which amino acid positions are important for brain homing of Cerepep, in vivo play-off method was used. A pool of T7 peptide-phages was created, where each amino acid of Cerepep sequence was changed one-by-by to alanine and alanines were changed to leucines. These clones, original Cerepep peptide-phage clone and control insertless phage were mixed in equimolar ratio and 5×10^9 pfu of phage mix was injected i.v. into male Balb/C mice (n=2). Following 1 h circulation the animals were anesthetized and perfused with PBS. The prevalence of phage clones in the brain was determined by high throughput sequencing.
To determine which amino acid positions are important for brain homing of SERVISRAKLAAAL (SEQ ID NO:9), a pool of peptide-phage clones was compiled, where every amino acid position was one-by-one changed to alanine (alanines were changed to leucines). […] The phage mix was injected into mice and following a 1 h circulation the amount of different phage clones in the brain was determined using HTS. […]
Based on studies involving in vivo play-off analyses, it was determined that Arginines and isoleucine are crucial for the brain homing of Cerepep (CP) peptide. Every position of CP peptide was one-by one mutated to alanine (alanines were changed to leucines) and the brain homing of each mutated peptide-phage was assessed using in vivo play-off method (FIG. 7C). […]

For CAGALCY [reference compound], the R1 reads (mouse brain [1]; round 1) was 3 reads, the R3 reads (mouse brain [1]; round 3) was 880 reads and the “R3 > R1 (ratio of sequencing reads between round 3 and round 1)” value (mouse brain [1]; round 3 / round 1) was 293. For the same substance, the “representation in the brain (HTS reads)” value (mouse brain [2]) was “highest representation in the brain”.
“FAM-labelled CVG peptide: 5(6)-carboxyfluorescein-labelled CVGTNCY peptide (not fully specified (N-terminus); cysteine pairing not given here; also: 5(6)-carboxyfluorescein label, position not given here)” was tested, and the “colocalization with activated microglia markers CD68, CD11b and CD206” value (activated microglia) was “colocalization with activated microglia markers CD68, CD11b and CD206 cells”.
For RRVISRAKLAAAL, the “brain homing / brain accumulation of mutated peptide-phage” value (mouse brain [3]) was “appear to be necessary for brain homing”.
